For test [1], the target named is T1, cytoplasmic domain of the human CSF-1R (Homo sapiens, UniProt P07333).
T1 construct: Recombinant protein corresponding to the cytoplasmic domain of the human CSF-1R; purchased Invitrogen Corporation, Carlsbad, Calif; PV3249
T1 sequence (P07333 539-972 limits assumed): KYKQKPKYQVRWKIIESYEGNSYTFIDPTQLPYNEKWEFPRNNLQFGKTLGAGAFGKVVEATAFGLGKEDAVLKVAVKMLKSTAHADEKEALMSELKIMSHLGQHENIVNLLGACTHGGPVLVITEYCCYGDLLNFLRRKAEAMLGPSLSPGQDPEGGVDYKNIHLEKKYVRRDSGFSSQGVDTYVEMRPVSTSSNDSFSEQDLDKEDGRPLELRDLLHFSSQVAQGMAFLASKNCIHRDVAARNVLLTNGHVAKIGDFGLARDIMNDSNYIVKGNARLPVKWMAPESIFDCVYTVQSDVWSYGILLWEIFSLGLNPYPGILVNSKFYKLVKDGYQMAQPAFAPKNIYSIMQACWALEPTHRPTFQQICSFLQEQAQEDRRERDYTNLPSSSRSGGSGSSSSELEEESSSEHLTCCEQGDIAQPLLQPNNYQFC
Put plainly: In vitro kinase assay for colony stimulating factor-1 receptor (AlphaScreen). The note with it: tested at about 1 μM, read-out: CSF-1R percent inhibition. In kind it is biochemical. The method in brief: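 Kinase reaction used 4 nM recombinant cytoplasmic domain at 1 μM ATP in 50 mM Hepes pH 7.5 with 5 mM MgCl2, 10 mM MnCl2, 0.1% BSA, 1.0 mM DTT and 0.01% Tween 80. Compounds were serially diluted 3-fold from 25 μM. Phosphopeptide was detected by AlphaScreen, PT66 anti-phosphotyrosine acceptor plus streptavidin donor beads, read after overnight incubation.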
(In general: Bead proximity is the source of the signal in Alpha formats.)

Test [2] has as its target T2, full-length human CSF-1R receptor (Homo sapiens, UniProt P07333).
T2 construct: transfected with the full-length human CSF-1R receptor cloned in house; expressed in transfected cells; host or cells: HEK293H (Invitrogen Cat. #11631017)
Put plainly: In vitro inhibition of CSF-1R receptor tyrosine phosphorylation in transfected HEK293H cells stimulated with MCSF. The note with it: HEK293-H, tested at about 1 μM, read-out: pCSF1R percent inhibition. In kind it is cell-based. As for the experimental part:
The lysate was then transferred to total CSF-1R antibody coated 96-well plates that had already been blocked with 3% Blocker A from Mesoscale discovery (MSD) for 2 hours and washed afterwards. Lysates were incubated overnight at 4° C. and the plates were then washed 4× with MSD Tris Wash Buffer. […] The plates were read on the Sector 6000 instrument (MSD). Raw data was imported in Abase and EC50s calculated with XL-fit data analysis software.

In test [3] the target is T3, kinase domain of cKIT (Homo sapiens, UniProt P10721).
T3 construct: The kinase domain of cKIT was assayed in 50 mM Hepes; purchased Upstate 14-559
T3 sequence (P10721 589-937 limits assumed): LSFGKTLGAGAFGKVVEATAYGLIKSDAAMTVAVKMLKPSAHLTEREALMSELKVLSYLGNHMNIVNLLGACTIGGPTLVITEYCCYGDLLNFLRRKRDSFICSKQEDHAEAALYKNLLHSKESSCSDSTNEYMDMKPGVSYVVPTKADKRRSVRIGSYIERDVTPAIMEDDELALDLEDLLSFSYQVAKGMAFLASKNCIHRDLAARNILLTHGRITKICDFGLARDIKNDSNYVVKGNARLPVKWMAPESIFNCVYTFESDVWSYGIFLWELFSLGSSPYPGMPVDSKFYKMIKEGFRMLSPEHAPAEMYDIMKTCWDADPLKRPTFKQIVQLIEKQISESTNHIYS
Put plainly: Inhibition of cKIT kinase signaling in an in vitro biochemical assay (alphascreen). The note with it: tested at about 1 μM, read-out: cKit percent inhibition.

In test [4] the target is T4, kinase domain of PDGFRβ (Homo sapiens, UniProt P09619).
T4 construct: The kinase domain of PDGFRβ was assayed in 50 mM Hepes; purchased Invitrogen P3082
T4 sequence (P09619 600-962 limits assumed): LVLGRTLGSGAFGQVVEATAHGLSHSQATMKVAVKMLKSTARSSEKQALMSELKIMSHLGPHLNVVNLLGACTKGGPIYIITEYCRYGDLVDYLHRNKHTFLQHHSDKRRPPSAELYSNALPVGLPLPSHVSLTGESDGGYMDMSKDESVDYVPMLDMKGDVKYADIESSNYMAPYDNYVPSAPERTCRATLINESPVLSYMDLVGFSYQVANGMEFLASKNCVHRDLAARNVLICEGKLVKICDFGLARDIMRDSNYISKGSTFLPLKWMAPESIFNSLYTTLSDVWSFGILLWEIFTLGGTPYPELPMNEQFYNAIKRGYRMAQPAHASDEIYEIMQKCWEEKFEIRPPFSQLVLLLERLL
Nature of the test: Inhibition of PDGFRb kinase signaling in an in vitro biochemical assay (alphascreen). As to conditions: tested at about 1 μM, read-out: PDGFRβ percent inhibition.

The test system of test [5] is MNFS60 (murine AML cells). Put plainly: Cell viability assay in MCSF dependent MNFS60 cells (Cell Titer Glo). In kind it is cell-based. As to conditions: Mus musculus, tested at about 1 μM, read-out: M-NFS-60 CP percent inhibition. The method in brief:
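Viability was read by Cell Titer Glo after 72 hrs at 37° C., 5% CO2, with triplicate conditions. Compounds were titrated 3-fold into MNFS60 cultures whose final MCSF level was 10 ng/ml. EC50 values came from curve fitting.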
For orientation: In ATP-based viability assays light output follows the ATP content of the culture.

The text below walks through data of patent publication US8173689B2 (Novartis AG, priority 2006, dated 2012).

SMILES strings stand for the structures. Like-named read-outs stand apart in the source and are kept apart here.

T2 sequence (P07333 20-972): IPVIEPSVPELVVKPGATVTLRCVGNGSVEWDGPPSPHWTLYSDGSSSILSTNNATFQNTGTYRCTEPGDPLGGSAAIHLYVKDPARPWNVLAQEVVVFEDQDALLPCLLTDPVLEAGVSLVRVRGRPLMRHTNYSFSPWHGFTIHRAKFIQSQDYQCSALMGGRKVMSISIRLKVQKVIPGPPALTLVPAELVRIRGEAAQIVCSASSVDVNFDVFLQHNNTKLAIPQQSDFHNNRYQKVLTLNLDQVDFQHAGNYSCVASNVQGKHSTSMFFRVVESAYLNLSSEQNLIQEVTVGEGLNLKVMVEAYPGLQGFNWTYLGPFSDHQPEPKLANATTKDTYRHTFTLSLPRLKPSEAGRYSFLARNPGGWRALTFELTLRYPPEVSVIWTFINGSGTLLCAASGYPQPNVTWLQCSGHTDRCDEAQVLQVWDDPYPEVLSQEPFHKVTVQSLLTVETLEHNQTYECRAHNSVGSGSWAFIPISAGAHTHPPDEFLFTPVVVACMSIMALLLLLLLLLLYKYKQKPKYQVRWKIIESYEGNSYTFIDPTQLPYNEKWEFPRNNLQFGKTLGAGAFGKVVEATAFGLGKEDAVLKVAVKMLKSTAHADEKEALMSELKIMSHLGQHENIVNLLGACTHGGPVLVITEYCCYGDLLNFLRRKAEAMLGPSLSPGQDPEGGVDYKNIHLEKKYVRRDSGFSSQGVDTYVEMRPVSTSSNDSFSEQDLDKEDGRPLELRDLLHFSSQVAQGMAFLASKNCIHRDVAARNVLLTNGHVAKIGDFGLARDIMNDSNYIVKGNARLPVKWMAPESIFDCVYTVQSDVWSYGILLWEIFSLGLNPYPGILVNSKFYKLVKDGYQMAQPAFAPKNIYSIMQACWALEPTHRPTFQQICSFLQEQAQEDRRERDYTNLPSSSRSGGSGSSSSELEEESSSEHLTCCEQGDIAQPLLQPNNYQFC

As to `CNC(=O)c1cc(Oc2ccc3nc(NCc4ccccc4Cl)sc3c2)ccn1` [Compound 127, 4-[2-(2-Chloro-benzylamino)-benzothiazol-6-yloxy]-pyridine-2-carboxylic acid methylamide], the inhibition at 1 µM in test [1] turned out to be 100%; in test [2] (HEK293H cells), 95%; in test [3], 81%; in test [4] it was 20%; in test [5] (MNFS60 cells), 95%.

In the case of `CNC(=O)c1cc(Oc2ccc3nc(NCc4cccnc4)sc3c2)ccn1` [Compound 154, 4-{2-[(Pyridin-3-ylmethyl)-amino]-benzothiazol-6-yloxy}-pyridine-2-carboxylic acid methylamide], the inhibition at 1 µM in test [1] amounted to 99%; in test [2] (HEK293H cells) it was 93%; in test [3], 17%; in test [4] it was 18%; in test [5] (MNFS60 cells), 48%.

With `C[C@H](Nc1nc2ccc(Oc3ccnc(-c4ccc(N)nc4)c3)cc2s1)C1CCCCC1` [Example 276, (S)-6-(6'-amino-2,3'-bipyridin-4-yloxy)-N-(1-cyclohexylethyl)benzo[d] thiazol-2-amine], the inhibition at 1 µM in test [1] (compounds of Table 3) came to 100%; in test [2] (compounds of Table 3) it was 97%; in test [3] (compounds of Table 3), 39%; in test [4] (compounds of Table 3), 26%; in test [5] (compounds of Table 3) it was 100%.

Turning to `O[C@@H]1CCCC[C@H]1Nc1nc2ccc(Oc3ccnc(-c4cccnc4)c3)cc2s1` [Example 345, (1R,2R)-2-(6-(2,3'-bipyridin-4-yloxy)benzo[d]thiazol-2-ylamino)cyclohexanol], the inhibition at 1 µM in test [1] amounted to 100%; in test [2] (HEK293H cells), 93%; in test [3], 19%; in test [4], 13%; in test [5] (MCSF dependent MNFS60 cells), 97%.

With `CNC(=O)c1cc(Oc2ccc3nc(NCCc4ccccc4)sc3c2)ccn1` [Compound 133, 4-(2-Phenethylamino-benzo-thiazol-6-yloxy)-pyridine-2-carboxylic acid methylamide], the inhibition at 1 µM came out at 99% in test [1]; 92% in test [2] (HEK293H cells); 53% in test [3]; 3% in test [4]; 45% in test [5] (MNFS60 cells).

For `O[C@@H]1CCCC[C@H]1Nc1nc2ccc(Oc3ccnc4cc(OC(F)(F)F)ccc34)cc2s1` [Example 230, (1R,2R)-2-(6-(7-(trifluoromethoxy)quinolin-4-yloxy)benzo[d]thiazol-2-ylamino)cyclohexanol], the inhibition at 1 µM in test [1] (compounds of Table 3) turned out to be 100%; in test [2] (compounds of Table 3) it was 65%; in test [3] (compounds of Table 3), 6%; in test [4] (compounds of Table 3), 14%; in test [5] (compounds of Table 3), 58%.

Regarding `COCCn1cc(-c2cc(Oc3ccc4nc(N[C@@H]5CCCC[C@H]5O)sc4c3)ccn2)cn1` [Example 260, (1R,2R)-2-(6-(2-(1-(2-methoxyethyl)-1H-pyrazol-4-yl)pyridin-4-yloxy)benzo[d]thiazol-2-ylamino)cyclohexanol], the inhibition at 1 µM in test [1] (compounds of Table 3) stood at 100%; in test [2] (compounds of Table 3) it was 98%; in test [3] (compounds of Table 3) it was 25%; in test [4] (compounds of Table 3) it was 0%; in test [5] (compounds of Table 3), 100%.

As to `O[C@@H]1CCCC[C@H]1Nc1nc2ccc(Oc3ccnc(-c4ccco4)c3)cc2s1` [Example 371, (1R,2R)-2-(6-(2-(furan-2-yl)pyridin-4-yloxy)benzo[d]thiazol-2-ylamino)cyclohexanol], the inhibition at 1 µM in test [1] turned out to be 100%; in test [2] (HEK293H cells), 79%; in test [3], 29%; in test [4], 9%; in test [5] (MCSF dependent MNFS60 cells), 69%.

Turning to `Cn1cc(-c2cc(Oc3ccc4nc(N[C@@H]5c6ccccc6C[C@@H]5O)sc4c3)ccn2)cn1` [Example 348, (1R,2S)-1-(6-(2-(1-methyl-1H-pyrazol-4-yl)pyridin-4-yloxy)benzo[d]thiazol-2-ylamino)-2,3-dihydro-1H-inden-2-ol], the inhibition at 1 µM in test [1] was determined as 100%; in test [2] (HEK293H cells), 90%; in test [3] it was 47%; in test [4], 55%; in test [5] (MCSF dependent MNFS60 cells), 100%.

As to `CNC(=O)c1cc(Oc2ccc3nc(NCc4ccccc4OC)oc3c2)ccn1` [Compound 17, 4-[2-(2-Methoxy-benzylamino)-benzooxazol-6-yloxy]-pyridine-2-carboxylic acid methylamide], the inhibition at 1 µM in test [1] amounted to 100%; in test [2] (HEK293H cells), 94%; in test [3] it was 85%; in test [4], 10%; in test [5] (MNFS60 cells), 81%.

Turning to `N#Cc1ccc2nccc(Oc3ccc4nc(N[C@@H]5CCCC[C@H]5O)sc4c3)c2c1` [Example 220, 4-(2-((1R,2R)-2-hydroxycyclohexylamino)benzo[d]thiazol-6-yloxy)quinolin-6-carbonitrile], the inhibition at 1 µM in test [1] (compounds of Table 3) was 100%; in test [2] (compounds of Table 3), 91%; in test [3] (compounds of Table 3), 48%; in test [4] (compounds of Table 3) it was 65%; in test [5] (compounds of Table 3), 84%.

Consider `Cn1cc(-c2cc(Oc3ccc4nc(NCC5CCCCC5)sc4c3)ccn2)cn1` [Example 340, N-(cyclohexylmethyl)-6-(2-(1-methyl-1H-pyrazol-4-yl)pyridin-4-yloxy)benzo[d]thiazol-2-amine], for which the inhibition at 1 µM in test [1] was 100%; in test [2] (HEK293H cells), 96%; in test [3], 100%; in test [4], 98%; in test [5] (MCSF dependent MNFS60 cells), 100%.

As for `CNC(=O)c1cc(Oc2ccc3nc(NCCc4ccccc4Cl)sc3c2)ccn1` [Example 319, 4-(2-(2-chlorophenylethylamino)benzo[d]thiazol-6-yloxy)-N-methylpicolinamide], the inhibition at 1 µM in test [1] was determined as 100%; in test [2] (HEK293H cells), 91%; in test [3] it was 93%; in test [4], 24%; in test [5] (MCSF dependent MNFS60 cells), 61%.

With `O[C@H]1Cc2ccccc2[C@H]1Nc1nc2ccc(Oc3ccnc4ccccc34)cc2s1` [Example 237, (1R,2S)-1-(6-(quinolin-4-yloxy)benzo[d]thiazol-2-ylamino)-2,3-dihydro-1H-inden-2-ol], the inhibition at 1 µM was 100% in test [1] (compounds of Table 3); 94% in test [2] (compounds of Table 3); 24% in test [3] (compounds of Table 3); 13% in test [4] (compounds of Table 3); 100% in test [5] (compounds of Table 3).

Take `c1ccc2c(Oc3ccc4nc(NC5CCCCC5)sc4c3)ccnc2c1` [Example 256, N-cyclohexyl-6-(quinolin-4-yloxy)benzo[d]thiazol-2-amine]: the inhibition at 1 µM in test [1] (compounds of Table 3) came out at 100%; in test [2] (compounds of Table 3) it was 87%; in test [3] (compounds of Table 3) it was 71%; in test [4] (compounds of Table 3), 3%; in test [5] (compounds of Table 3), 87%.

Regarding `COc1ccc(-c2cc(Oc3ccc4nc(N[C@@H](C)C5CCCCC5)sc4c3)ccn2)cn1` [Example 279, (S)-N-(1-cyclohexylethyl)-6-(6'-methoxy-2,3'-bipyridin-4-yloxy)benzo[d]thiazol-2-amine], the inhibition at 1 µM in test [1] (compounds of Table 3) was determined as 100%; in test [2] (compounds of Table 3), 59%; in test [3] (compounds of Table 3), 30%; in test [4] (compounds of Table 3), 7%; in test [5] (compounds of Table 3), 60%.

A word on the inhibition: it is the relative decrease from the control value, in per cent.
